Source: PubChem BioAssay (NCI)
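Five concentrations, 48 hours, 96-well plates. Definition used: TGI = concentration required for complete inhibition of growth.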

What was measured:
Test in all cases: inhibition of tumour cell growth, NCI panel, 48 h
SK-MEL-28 melanoma = test system: SK-MEL-28 melanoma
NCI-H23 lung = test system: NCI-H23 lung
DMS 273 small cell lung = test system: DMS 273 small cell lung
OVCAR-4 ovarian = test system: OVCAR-4 ovarian
EKVX NSCLC = test system: EKVX NSCLC
ACHN renal = test system: ACHN renal
UACC-62 melanoma = test system: UACC-62 melanoma
CCRF-CEM leukemia = test system: CCRF-CEM leukemia
KM20L2 colon = test system: KM20L2 colon
SK-MEL-2 melanoma = test system: SK-MEL-2 melanoma
DLD-1 colon = test system: DLD-1 colon
COLO 205 colon = test system: COLO 205 colon
786-0 renal = test system: 786-0 renal
HOP-62 NSCLC = test system: HOP-62 NSCLC
OVCAR-3 ovarian = test system: OVCAR-3 ovarian
HOP-92 NSCLC = test system: HOP-92 NSCLC
OVCAR-8 ovarian = test system: OVCAR-8 ovarian
SF-268 CNS = test system: SF-268 CNS
NCI-H226 lung = test system: NCI-H226 lung
SF-539 CNS = test system: SF-539 CNS
M14 melanoma = test system: M14 melanoma
SR leukemia = test system: SR leukemia
UACC-257 melanoma = test system: UACC-257 melanoma
U251 CNS = test system: U251 CNS
SNB-19 CNS = test system: SNB-19 CNS
XF 498 CNS = test system: XF 498 CNS
SN12C renal = test system: SN12C renal
SNB-75 CNS = test system: SNB-75 CNS
LXFL 529 NSCLC = test system: LXFL 529 NSCLC
OVCAR-5 ovarian = test system: OVCAR-5 ovarian
RPMI-8226 leukemia = test system: RPMI-8226 leukemia
HL-60(TB) leukemia = test system: HL-60(TB) leukemia
HCC-2998 colon = test system: HCC-2998 colon
IGROV1 ovarian = test system: IGROV1 ovarian
K-562 leukemia = test system: K-562 leukemia
SW-620 colon = test system: SW-620 colon
MALME-3M melanoma = test system: MALME-3M melanoma
TK-10 renal = test system: TK-10 renal
SK-MEL-5 melanoma = test system: SK-MEL-5 melanoma
A549 NSCLC = test system: A549 NSCLC
HCT-15 colon = test system: HCT-15 colon
UO-31 renal = test system: UO-31 renal
MOLT-4 leukemia = test system: MOLT-4 leukemia
SF-295 CNS = test system: SF-295 CNS
LOX IMVI melanoma = test system: LOX IMVI melanoma
M19-MEL melanoma = test system: M19-MEL melanoma
HT29 colon = test system: HT29 colon
KM12 colon = test system: KM12 colon
SK-OV-3 ovarian = test system: SK-OV-3 ovarian
NCI-H522 lung = test system: NCI-H522 lung
HCT-116 colon = test system: HCT-116 colon
CAKI-1 renal = test system: CAKI-1 renal
DMS 114 small cell lung = test system: DMS 114 small cell lung
RXF 393 renal = test system: RXF 393 renal
NCI-H460 lung = test system: NCI-H460 lung
SNB-78 CNS = test system: SNB-78 CNS
T-47D breast = test system: T-47D breast
A498 renal = test system: A498 renal
HS 578T breast = test system: HS 578T breast
HOP-18 NSCLC = test system: HOP-18 NSCLC
MDA-N = test system: MDA-N
PC-3 prostate = test system: PC-3 prostate
MCF7 breast = test system: MCF7 breast
MDA-MB-435 = test system: MDA-MB-435
DU-145 prostate = test system: DU-145 prostate
NCI/ADR-RES ovarian = test system: NCI/ADR-RES ovarian
BT-549 breast = test system: BT-549 breast
MDA-MB-231 breast = test system: MDA-MB-231 breast

## NNC(=O)C1CCC(=O)N1S(=O)(=O)c1ccccc1 (stereo not drawn)
SK-MEL-28 melanoma
  TGI: > 100 µM
NCI-H23 lung
  TGI: > 100 µM
DMS 273 small cell lung
  TGI: > 100 µM
OVCAR-4 ovarian
  TGI: > 100 µM
EKVX NSCLC
  TGI: > 100 µM
ACHN renal
  TGI: > 100 µM
UACC-62 melanoma
  TGI: > 100 µM
CCRF-CEM leukemia
  TGI: > 100 µM
KM20L2 colon
  TGI: > 100 µM
SK-MEL-2 melanoma
  TGI: > 100 µM
DLD-1 colon
  TGI: > 100 µM
COLO 205 colon
  TGI: > 100000 nM
786-0 renal
  TGI: > 100 µM
HOP-62 NSCLC
  TGI: > 100 µM
OVCAR-3 ovarian
  TGI: > 100 µM
HOP-92 NSCLC
  TGI: > 100 µM
OVCAR-8 ovarian
  TGI: > 100 µM
SF-268 CNS
  TGI: > 100 µM
NCI-H226 lung
  TGI: > 100 µM
SF-539 CNS
  TGI: > 100 µM
M14 melanoma
  TGI: > 100 µM
SR leukemia
  TGI: > 100 µM
UACC-257 melanoma
  TGI: > 100 µM
U251 CNS
  TGI: > 100 µM
SNB-19 CNS
  TGI: > 100 µM
XF 498 CNS
  TGI: > 100 µM
SN12C renal
  TGI: > 100 µM
SNB-75 CNS
  TGI: > 100 µM
LXFL 529 NSCLC
  TGI: > 100000 nM
OVCAR-5 ovarian
  TGI: > 100 µM
RPMI-8226 leukemia
  TGI: > 100 µM
HL-60(TB) leukemia
  TGI: > 100 µM
HCC-2998 colon
  TGI: > 100 µM
IGROV1 ovarian
  TGI: > 100 µM
K-562 leukemia
  TGI: > 100000 nM
SW-620 colon
  TGI: > 100 µM
MALME-3M melanoma
  TGI: > 100000 nM
TK-10 renal
  TGI: > 100 µM
SK-MEL-5 melanoma
  TGI: > 100 µM
A549 NSCLC
  TGI: > 100 µM
HCT-15 colon
  TGI: > 100 µM
UO-31 renal
  TGI: > 100 µM
MOLT-4 leukemia
  TGI: > 100 µM
SF-295 CNS
  TGI: > 100 µM
LOX IMVI melanoma
  TGI: > 100 µM
M19-MEL melanoma
  TGI: > 100 µM
HT29 colon
  TGI: > 100 µM
KM12 colon
  TGI: > 100 µM
SK-OV-3 ovarian
  TGI: > 100 µM
NCI-H522 lung
  TGI: > 100000 nM
HCT-116 colon
  TGI: > 100 µM
CAKI-1 renal
  TGI: > 100 µM
DMS 114 small cell lung
  TGI: > 100 µM
RXF 393 renal
  TGI: > 100 µM
NCI-H460 lung
  TGI: > 100 µM
SNB-78 CNS
  TGI: > 100 µM

## CC(C)(C)C(=O)OCC1C(=O)OCC1C(=O)N1Cc2cc3ccccc3nc2C1 (stereo not drawn)
T-47D breast
  TGI: 7.63 µM
A498 renal
  TGI: 26 µM
SK-MEL-28 melanoma
  TGI: 10.8 µM
NCI-H23 lung
  TGI: 13.6 µM
DMS 273 small cell lung
  TGI: 12.7 µM
OVCAR-4 ovarian
  TGI: 7.67 µM
EKVX NSCLC
  TGI: 22.4 µM
ACHN renal
  TGI: 7.54 µM
UACC-62 melanoma
  TGI: 15.7 µM
HS 578T breast
  TGI: 64.3 µM
CCRF-CEM leukemia
  TGI: 5.89 µM
KM20L2 colon
  TGI: 15.9 µM
SK-MEL-2 melanoma
  TGI: 22.1 µM
DLD-1 colon
  TGI: 3.15 µM
COLO 205 colon
  TGI: 2410 nM
786-0 renal
  TGI: 7.69 µM
HOP-18 NSCLC
  TGI: 6.59 µM
HOP-62 NSCLC
  TGI: 22 µM
MDA-N
  TGI: 14.1 µM
PC-3 prostate
  TGI: 23 µM
OVCAR-3 ovarian
  TGI: 11.8 µM
HOP-92 NSCLC
  TGI: 3.69 µM
MCF7 breast
  TGI: 14.6 µM
MDA-MB-435
  TGI: 15.7 µM
OVCAR-8 ovarian
  TGI: 14.8 µM
SF-268 CNS
  TGI: 24.7 µM
DU-145 prostate
  TGI: 30.2 µM
NCI-H226 lung
  TGI: 14 µM
SF-539 CNS
  TGI: 12 µM
M14 melanoma
  TGI: 8.08 µM
NCI/ADR-RES ovarian
  TGI: 18.9 µM
SR leukemia
  TGI: 3.77 µM
UACC-257 melanoma
  TGI: 13.4 µM
U251 CNS
  TGI: 20.6 µM
SNB-19 CNS
  TGI: 38.6 µM
SN12C renal
  TGI: 16.8 µM
SNB-75 CNS
  TGI: 19.9 µM
LXFL 529 NSCLC
  TGI: 2970 nM
OVCAR-5 ovarian
  TGI: 23.1 µM
RPMI-8226 leukemia
  TGI: 4.82 µM
BT-549 breast
  TGI: 8.83 µM
HL-60(TB) leukemia
  TGI: 3.13 µM
HCC-2998 colon
  TGI: 29.3 µM
IGROV1 ovarian
  TGI: 29.1 µM
K-562 leukemia
  TGI: 2640 nM
SW-620 colon
  TGI: 3.17 µM
MALME-3M melanoma
  TGI: 2980 nM
TK-10 renal
  TGI: 6.35 µM
SK-MEL-5 melanoma
  TGI: 28.5 µM
A549 NSCLC
  TGI: 30.8 µM
HCT-15 colon
  TGI: 6.36 µM
UO-31 renal
  TGI: 7.99 µM
MOLT-4 leukemia
  TGI: 4.06 µM
SF-295 CNS
  TGI: 27.4 µM
LOX IMVI melanoma
  TGI: 15.3 µM
M19-MEL melanoma
  TGI: 12.8 µM
HT29 colon
  TGI: 14.2 µM
KM12 colon
  TGI: 29.8 µM
SK-OV-3 ovarian
  TGI: 29.8 µM
NCI-H522 lung
  TGI: 2200 nM
HCT-116 colon
  TGI: 5.28 µM
MDA-MB-231 breast
  TGI: 14.4 µM
CAKI-1 renal
  TGI: 3.87 µM
DMS 114 small cell lung
  TGI: 17.8 µM
RXF 393 renal
  TGI: 3.27 µM
NCI-H460 lung
  TGI: 5.52 µM
SNB-78 CNS
  TGI: 4.57 µM
